ChEMBL document CHEMBL3243940, “Primaquine analogues: derivatives of 4-amino-2-methoxyacridine” (J Med Chem, 1979)

Experiments:
Leishmania donovani [1] = experiment: Antileishmanial activity against amastigotes of Leishmania donovani Khartoum infected in golden hamster assessed as reduction of parasite level in liver at 13 mg/kg bid for 4 days; format: functional; design: scale not given: the % may be the effect or the level left
Syrian golden hamster = experiment: Toxicity in amastigotes of Leishmania donovani Khartoum infected golden hamster at 208 mg/kg bid for 4 days; format: organism-based, Mesocricetus auratus; design: dose 208 mg/kg; conditions: in vivo, 96 h
Leishmania donovani [2] = experiment: Ratio of glucantime SD50 to compound SD50 for amastigotes of Leishmania donovani Khartoum infected in golden hamster; format: functional
Leishmania donovani [3] = experiment: Antileishmanial activity against amastigotes of Leishmania donovani Khartoum infected in golden hamster assessed as reduction of parasite level in liver at 52 mg/kg bid for 4 days; format: functional; design: scale not given: the % may be the effect or the level left

Compound: CCN(CC)CCCCCCNc1cc(OC)cc2c(C)c3ccccc3nc12
- Activity (Leishmania donovani [1]): 36%
- Activity (Syrian golden hamster): Toxic
- Ratio (Leishmania donovani [2]): 0.2
- Activity (Leishmania donovani [3]): 53%
